Test results published in paper PMC10111420, “Optimization of Host Cell-Compatible, Antimicrobial Peptides Effective against Biofilms and Clinical Isolates of Drug-Resistant Bacteria” (ACS Infectious Diseases, 2023).
≈ marks a conversion by molar mass, not a printed value. Read-outs that look alike come from different tables or passages of the source. Where a SMILES comes first, the peptide text is derived from it. [ ]: non-standard residue; d: D form. d(hArg) = N=C(N)NCCCC[C@@H](N)C(=O)O

Columns and labels:
[1] = system: K. pneumoniae clinical isolates; assay: microbe, parasite or virus in culture; conditions: Klebsiella pneumoniae
Procedure: (§1) Subcultures, prepared by inoculating 25 mL of fresh tryptic soy broth (TSB) with 200 μL of an overnight culture, were grown to log phase (OD600 = 0.3–0.6), after which cell counts were determined by measuring the OD600 (1.0 = 5 × 10^8 CFU/mL for E. coli, 4 × 10^8 CFU/mL for K. pneumoniae, 4 × 10^8 CFU/mL for P. aeruginosa, 1.5 × 10^8 CFU/mL for S. aureus). Bacterial cells were diluted to appropriate concentrations in TSB. We used the following clinical bacterial isolates of Klebsiella pneumoniae in this study: Strains KP6, KP46, NDM-1, KP396, and KP398 have been previously described.[43] ST58 strains C2, C3, and I2 are also described.[41] […] MRSA, […] S. aureus strain, is SAP400, a USA400 strain of community-acquired MRSA. […] The second independent set of K. pneumoniae isolates are previously described.[20],[21]
The antibiotics were serially diluted by a factor of 2:3 horizontally across 96-well plates from Corning, 25 μL per well. One column was reserved for controls. For the assays performed in the presence of RBC, type O+ human RBCs at 0 or 2.5 × 10^9 cells/mL were added in 50 μL aliquots to all wells. […] To assess bacterial growth in the assays with RBC, the OD600 was measured after a second-day inoculation with 10 μL of solution from the original plate added to 100 μL of sterile TSB followed by overnight incubation.
(§2) Experiments were repeated four to eight times independently, with pairs of replicate measurements on each 96-well plate. After overnight growth, optical densities were measured at 660 nm and the sterilized wells were identified by having O.D. < 0.08. Nonsterilized wells were nearly opaque with OD > 0.6. For each measurement, we recorded the largest dilution that sterilized the bacteria. Statistics are done on dilution numbers, rather than calculated concentrations, because only the former have normal distributions.

[2] = system: MRSA SAP400, a USA400 strain; assay: microbe, parasite or virus in culture; conditions: Staphylococcus aureus, read-out: MIC, MRSA USA400
Procedure: as §1
(§3) The antibiotics were serially diluted by a factor of 2:3 horizontally across 96-well plates from Corning, 25 μL per well. One column was reserved for controls. For the assays performed in the presence of RBC, type O+ human RBCs at 0 or 2.5 × 10^9 cells/mL were added in 50 μL aliquots to all wells. Following a 30-min incubation, 50 μL of TSB, inoculated with 5 × 10^5 CFU/mL, was added to all wells, and plates were incubated overnight at 37 °C. Following overnight incubation at 37 °C, the OD600 was measured (values of less than 0.1 were considered sterilized). To assess bacterial growth in the assays with RBC, the OD600 was measured after a second-day inoculation with 10 μL of solution from the original plate added to 100 μL of sterile TSB followed by overnight incubation.
as §2

[3] = system: Pseudomonas aeruginosa clinical isolates; assay: microbe, parasite or virus in culture; conditions: Pseudomonas aeruginosa
Procedure: as §1, §3, §2

[4] = system: Acinetobacter baumannii (PDR) Tulane isolate; assay: microbe, parasite or virus in culture; conditions: read-out: MIC, AB (PDR)Tulane
[5] = system: 14 clinical isolates of resistant bacterial strains; assay: Broth dilution, summary over the 14 clinical isolates of the first set; format: cell-based; conditions: statement for all 14 clinical isolates of the first set; read-out: MIC, all isolates (completely resistant)
Procedure: In Figure 4B, we plot the fraction of isolates sterilized as functions of antibiotic concentration.
as §1, §3

human RBCs = format: cell-based
Procedure: Human O+ erythrocytes were obtained from Interstate Blood Bank, Inc. Red blood cells were subjected to four or more cycles of centrifugation at 1000g with resuspension in fresh PBS. Following the final wash step, the supernatant was clear and colorless. RBC concentration was determined using a standard hemocytometer.
Peptide was serially diluted in PBS starting at a concentration of 100 μM. The final volume of peptide in each well was 50 μL. To each well, 50 μL of RBCs in PBS at 2 × 10^8 cells/mL was added. As a positive lysis control, 1% Triton was used. The mixtures were incubated at 37 °C for 1 h, after which they were centrifuged at 1000g for 5 min. After centrifugation, 10 μL of supernatant was transferred to 90 μL of DI H2O in a fresh 96-well plate. The absorbance of released hemoglobin at 410 nm was recorded, and the fractional hemolysis was calculated based on the 100 and 0% lysis controls. At least three independent experiments were performed. Results shown are averages.

[6] = system: WI-38 human fibroblast cells; assay: in vitro; format: cell-based
Procedure: The day before cytotoxicity experiments, the 10,000 cells/well were plated in a 96-well tissue-culture plate. […] To perform the cytotoxicity assay, media was removed from the wells and replaced with peptide solutions. […] The plate was read for SYTOX fluorescence every 5 min for an hour with an excitation wavelength of 504 nm and an emission wavelength of 523 nm. Percent cytotoxicity was calculated at 60 min using the 100 and 0% lysis controls. At least three independent experiments were averaged.

[7] = ATCC33495, read-out: MIC, KP ATCC 33495

Row | SMILES | MIC [1, 7] [µM] | MIC ([1]; read-out: MIC, KP 6) [µM] | MIC ([1]; read-out: MIC, KP 46) [µM] | MIC ([1]; read-out: MIC, KP 398) [µM] | MIC ([1]; read-out: MIC, KP 2146NDM-1) [µM] | MIC ([1]; read-out: MIC, KP (CRE)) [µM] | MIC ([1]; read-out: MIC, KP ST258 C2) [µM] | MIC ([1]; read-out: MIC, KP ST258 C3) [µM] | MIC ([1]; read-out: MIC, KP ST258 I2) [µM] | MIC ([1]; read-out: MIC, KP ST396) [µM] | MIC [2] [µM] | MIC ([3]; read-out: MIC, PA(mucoid)) [µM] | MIC ([3]; read-out: MIC, PA(non-mucoid)) [µM] | MIC [4] [µM] | MIC [5] [µM] | Hemolysis at 100 μM (fractional hemolysis) (human RBCs) | EC50 [6] [µM]
1 | C[C@@H](O)[C@H]1C(=O)N2C(C(=O)O)=C(S[C@@H]3CN[C@H](C(=O)N(C)C)C3)[C@H](C)[C@H]12 [MEM, meropenem] | 0.2 (≈ 0.0767 µg/mL) | 0.2 (≈ 0.0767 µg/mL) | 0.4 (≈ 0.153 µg/mL) | 0.2 (≈ 0.0767 µg/mL) | > 150 | 108 (≈ 41.4 µg/mL) | > 150 | > 150 | > 150 | 0.3 (≈ 0.115 µg/mL) | > 150 | 13.3 (≈ 5.1 µg/mL) | 4 (≈ 1.53 µg/mL) | > 150 | – | – | –
2 | NC[C@H]1O[C@H](O[C@H]2[C@H](O)[C@@H](O[C@H]3O[C@H](CO)[C@@H](O)[C@H](N)[C@H]3O)[C@H](N)C[C@@H]2N)[C@H](N)C[C@@H]1O [TOB, tobramycin] | 7.5 (≈ 3.51 µg/mL) | > 150 | 3.5 (≈ 1.64 µg/mL) | 6.9 (≈ 3.23 µg/mL) | > 150 | > 150 | > 150 | > 150 | > 150 | 4.6 (≈ 2.15 µg/mL) | > 150 | 4.2 (≈ 1.96 µg/mL) | 5.9 (≈ 2.76 µg/mL) | > 150 | – | – | –
3 | CC(C)(O/N=C(\C(=O)N[C@@H]1C(=O)N2C(C(=O)[O-])=C(C[n+]3ccccc3)CS[C@H]12)c1csc(N)n1)C(=O)O [CAZ, ceftazidime] | > 150 | > 150 | > 150 | 133 (≈ 72.7 µg/mL) | > 150 | > 150 | > 150 | > 150 | > 150 | > 150 | > 150 | 116 (≈ 63.4 µg/mL) | > 150 | > 150 | > 150 | – | –
4 | CC(C)C[C@@H](NC(=O)[C@@H](CCCNC(=N)N)NC(=O)[C@@H](CCCNC(=N)N)NC(=O)[C@@H](C)NC(=O)[C@@H](Cc1c[nH]c2ccccc12)NC(=O)[C@@H](CCCNC(=N)N)NC(=O)[C@H](N)CCCNC(=N)N)C(=O)N[C@H](C)C(=O)N[C@H](Cc1ccccc1)C(=O)N[C@H](Cc1ccccc1)C(=O)N[C@H](CCCNC(=N)N)C(=O)N[C@H](CCCNC(=N)N)C(N)=O [D-CONGA-ΔA10] (H-[dR][dR][dW][dA][dR][dR][dL][dA][dF][dF][dR][dR]-NH2; N-terminus and C-terminus assumed) | – | – | – | – | – | – | – | – | – | – | – | – | – | – | – | 0.02 | 257
5 | CO/N=C(\C(=O)N[C@@H]1C(=O)N2C(C(=O)O)=C(CSc3nc(=O)c(=O)[nH]n3C)CS[C@H]12)c1csc(N)n1 [CRO, ceftriaxone] | 0.3 (≈ 0.166 µg/mL) | > 150 | 1.9 (≈ 1.05 µg/mL) | 0.2 (≈ 0.111 µg/mL) | > 150 | 45 (≈ 25 µg/mL) | > 150 | > 150 | > 150 | 1.9 (≈ 1.05 µg/mL) | > 150 | 137 (≈ 76 µg/mL) | 89 (≈ 49.4 µg/mL) | > 150 | – | – | –
6 | CC1(C)S[C@@H]2[C@H](NC(=O)[C@H](N)c3ccccc3)C(=O)N2[C@H]1C(=O)O [AMP, ampicillin] | – | – | – | – | – | – | – | – | – | – | > 150 | > 150 | > 150 | > 150 | > 150 | – | –
7 | CC(C)C[C@@H](NC(=O)CNC(=O)[C@@H](CCCNC(=N)N)NC(=O)[C@@H](CCCNC(=N)N)NC(=O)[C@@H](C)NC(=O)[C@@H](Cc1c[nH]c2ccccc12)NC(=O)[C@@H](CCCNC(=N)N)NC(=O)[C@H](N)CCCNC(=N)N)C(=O)N[C@H](C)C(=O)N[C@H](Cc1ccccc1)C(=O)N[C@H](C)C(=O)N[C@H](Cc1ccccc1)C(=O)N[C@H](CCCNC(=N)N)C(=O)N[C@H](CCCNC(=N)N)C(N)=O [D-CONGA-G7] (H-[dR][dR][dW][dA][dR][dR]G[dL][dA][dF][dA][dF][dR][dR]-NH2; N-terminus and C-terminus assumed) | – | – | – | – | – | – | – | – | – | – | – | – | – | – | – | 0.07 | 235
8 | CC(C)C[C@@H](NC(=O)[C@@H](CCCCNC(=N)N)NC(=O)[C@@H](CCCCNC(=N)N)NC(=O)[C@@H](C)NC(=O)[C@@H](Cc1c[nH]c2ccccc12)NC(=O)[C@@H](CCCNC(=N)N)NC(=O)[C@H](N)CCCNC(=N)N)C(=O)N[C@H](C)C(=O)N[C@H](Cc1ccccc1)C(=O)N[C@H](C)C(=O)N[C@H](Cc1ccccc1)C(=O)N[C@H](CCCNC(=N)N)C(=O)N[C@H](CCCNC(=N)N)C(N)=O [D-CONGA-HomoR] (H-[dR][dR][dW][dA][d(hArg)][d(hArg)][dL][dA][dF][dA][dF][dR][dR]-NH2; N-terminus and C-terminus assumed) | – | – | – | – | – | – | – | – | – | – | – | – | – | – | – | 0.06 | 143
9 | O=C(O)c1cn(C2CC2)c2cc(N3CCNCC3)c(F)cc2c1=O [CIPRO, ciprofloxacin] | – | – | – | – | – | – | – | – | – | – | 0.8 (≈ 0.265 µg/mL) | – | – | > 150 | – | – | –
10 | CC(C)C[C@@H](NC(=O)[C@@H](CCCNC(=N)N)NC(=O)[C@H](N)CCCNC(=N)N)C(=O)N[C@H](C)C(=O)N[C@H](Cc1ccccc1)C(=O)N[C@H](C)C(=O)N[C@H](Cc1ccccc1)C(=O)N[C@H](CCCNC(=N)N)C(=O)N[C@H](CCCNC(=N)N)C(=O)N[C@H](Cc1c[nH]c2ccccc12)C(=O)N[C@H](C)C(=O)N[C@H](CCCNC(=N)N)C(=O)N[C@H](CCCNC(=N)N)C(N)=O [D-CONGA-FLIP] (H-[dR][dR][dL][dA][dF][dA][dF][dR][dR][dW][dA][dR][dR]-NH2; N-terminus and C-terminus assumed) | – | – | – | – | – | – | – | – | – | – | – | – | – | – | – | 0.05 | 143
11 | CC(C)C[C@@H](NC(=O)[C@@H](CCCNC(=N)N)NC(=O)[C@@H](CCCNC(=N)N)NC(=O)[C@@H](Cc1c[nH]c2ccccc12)NC(=O)[C@@H](CCCNC(=N)N)NC(=O)[C@H](N)CCCNC(=N)N)C(=O)N[C@H](C)C(=O)N[C@H](Cc1ccccc1)C(=O)N[C@H](C)C(=O)N[C@H](Cc1ccccc1)C(=O)N[C@H](CCCNC(=N)N)C(=O)N[C@H](CCCNC(=N)N)C(N)=O [D-CONGA-ΔA4] (H-[dR][dR][dW][dR][dR][dL][dA][dF][dA][dF][dR][dR]-NH2; N-terminus and C-terminus assumed) | – | – | – | – | – | – | – | – | – | – | – | – | – | – | – | 0.02 | 143
